Data published in PubChem BioAssay AID248 (DTP/NCI, 2004).
Several values for one entry are separate records, joined by “and”; a condition that tells them apart may be missing. Identical values can stand only once. Inconclusive results and toxic doses are left out. No stated cut-off is given here; in the data, active means T/C of 150% or more; inactive means T/C below 125%.

Tested on: L1210 leukemia ip in BDF1 mice, survival T/C
Test: NCI In Vivo Anticancer Drug Screen. Data for tumor model L1210 Leukemia (intraperitoneal) in B6D2F1 (BDF1) mice
Details: endpoint: mean survival time, higher = longer survival
How it was run: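 Tumor was transplanted into mice, which were then dosed with test compound or vehicle alone. Survival was recorded for each group, and the treated figure was expressed relative to the control figure.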

[1] = dose: 100.0 mg/kg/injection, schedule: Q01DX009 (ip), vehicle: Klucel (hydroxypropylcellulose) (HPC)
[2] = dose: 200.0 mg/kg/injection, schedule: Q01DX009 (ip), vehicle: Klucel (hydroxypropylcellulose) (HPC)
[3] = dose: 100.0 mg/kg/injection, schedule: Q04DX003 (ip), vehicle: Klucel (hydroxypropylcellulose) (HPC)
[4] = dose: 200.0 mg/kg/injection, schedule: Q04DX003 (ip), vehicle: Klucel (hydroxypropylcellulose) (HPC)
[5] = dose: 400.0 mg/kg/injection, schedule: Q01DX009 (ip), vehicle: Klucel (hydroxypropylcellulose) (HPC)
[6] = dose: 400.0 mg/kg/injection, schedule: Q04DX003 (ip), vehicle: Klucel (hydroxypropylcellulose) (HPC)
[7] = dose: 100.0 mg/kg/injection, schedule: Q01DX001 (ip), vehicle: saline with Tween-80
[8] = dose: 200.0 mg/kg/injection, schedule: Q01DX001 (ip), vehicle: saline with Tween-80
[9] = dose: 400.0 mg/kg/injection, schedule: Q01DX001 (ip), vehicle: saline with Tween-80
[10] = dose: 25.0 mg/kg/injection, schedule: Q01DX009 (ip), vehicle: Klucel (hydroxypropylcellulose) (HPC)
[11] = dose: 50.0 mg/kg/injection, schedule: Q01DX009 (ip), vehicle: Klucel (hydroxypropylcellulose) (HPC)
[12] = dose: 100.0 mg/kg/injection, schedule: Q01DX001 (ip), vehicle: saline
[13] = dose: 200.0 mg/kg/injection, schedule: Q01DX001 (ip), vehicle: saline
[14] = dose: 400.0 mg/kg/injection, schedule: Q01DX001 (ip), vehicle: saline

Measured: T/C

CNC(=S)NC1CC(OC2CC(O)(C(C)=O)Cc3c(O)c4c(c(O)c32)C(=O)c2c(OC)cccc2C4=O)OC(C)C1O (stereo not drawn)
inactive: dose: 2.0 mg/kg/injection, schedule: Q04DX003 (ip), vehicle: water 107 % of control | dose: 3.12 mg/kg/injection, schedule: Q01DX009 (ip), vehicle: saline with Tween-80 115 % of control | dose: 4.0 mg/kg/injection, schedule: Q04DX003 (ip), vehicle: water 106 % of control | dose: 6.25 mg/kg/injection, schedule: Q01DX009 (ip), vehicle: saline with Tween-80 120 % of control | dose: 8.0 mg/kg/injection, schedule: Q04DX003 (ip), vehicle: water 107 % of control | dose: 12.5 mg/kg/injection, schedule: Q04DX003 (ip), vehicle: saline with Tween-80 108 % of control | dose: 16.0 mg/kg/injection, schedule: Q04DX003 (ip), vehicle: water 109 % of control and 110 % of control | dose: 25.0 mg/kg/injection, schedule: Q04DX003 (ip), vehicle: saline with Tween-80 124 % of control | dose: 32.0 mg/kg/injection, schedule: Q04DX003 (ip), vehicle: water 116 % of control | dose: 50.0 mg/kg/injection, schedule: Q04DX003 (ip), vehicle: saline with Tween-80 121 % of control | dose: 64.0 mg/kg/injection, schedule: Q04DX003 (ip), vehicle: water 110 % of control | dose: 125.0 micrograms/kg/injection, schedule: Q04DX003 (ip), vehicle: water 96 % of control | dose: 250.0 micrograms/kg/injection, schedule: Q04DX003 (ip), vehicle: water 103 % of control | dose: 500.0 micrograms/kg/injection, schedule: Q04DX003 (ip), vehicle: water 102 % of control | dose: 1000.0 micrograms/kg/injection, schedule: Q04DX003 (ip), vehicle: water 103 % of control | dose: 2000.0 micrograms/kg/injection, schedule: Q04DX003 (ip), vehicle: water 98 % of control

CCCCCCCCO/N=C\c1c2c(O)c3c(O)c(C)c4c(c3c1O)C(=O)C(C)(O/C=C\C(OC)C(C)C(OC(C)=O)C(C)C(O)C(C)C(O)C(C)/C=C\C=C(\C)C(=O)N2)O4 (stereo not drawn)
inactive: dose: 50.0 mg/kg/injection, schedule: Q04DX003 (ip), vehicle: water 96 % of control | [1] 106 % of control | dose: 100.0 mg/kg/injection, schedule: Q04DX003 (ip), vehicle: water 100 % of control | [2] 89 % of control | dose: 200.0 mg/kg/injection, schedule: Q04DX003 (ip), vehicle: water 98 % of control | dose: 400.0 mg/kg/injection, schedule: Q04DX003 (ip), vehicle: water 104 % of control

CC(O)c1ccc[n+]([O-])c1 (stereo not drawn)
inactive: dose: 100.0 mg/kg/injection, schedule: Q01DX009 (ip), vehicle: saline 93 % of control | dose: 200.0 mg/kg/injection, schedule: Q01DX009 (ip), vehicle: saline 96 % of control | dose: 400.0 mg/kg/injection, schedule: Q01DX009 (ip), vehicle: saline 96 % of control

Cc1ccc(NC(=S)NC(Cc2ccccc2)c2ccccc2)c(C)c1 (stereo not drawn)
inactive: [1] 106 % of control | [3] 98 % of control | [2] 87 % of control | [4] 96 % of control | [5] 101 % of control | [6] 98 % of control

Cc1ccc(S(=O)(=O)OCC(C)C2CCC3C4CC=C5CC(Cl)CCC5(C)C4CCC23C)cc1 (stereo not drawn)
inactive: [7] 91 % of control | [8] 102 % of control | [9] 94 % of control

N#CC1CC=CCC1 (stereo not drawn)
inactive: dose: 6.25 mg/kg/injection, schedule: Q01DX009 (ip), vehicle: saline 113 % of control | dose: 6.25 mg/kg/injection, schedule: Q04DX003 (ip), vehicle: saline 101 % of control | dose: 12.5 mg/kg/injection, schedule: Q01DX009 (ip), vehicle: saline 121 % of control | dose: 12.5 mg/kg/injection, schedule: Q04DX003 (ip), vehicle: saline 90 % of control | dose: 25.0 mg/kg/injection, schedule: Q01DX009 (ip), vehicle: saline 103 % of control | dose: 25.0 mg/kg/injection, schedule: Q04DX003 (ip), vehicle: saline 113 % of control

CCc1ccccc1NC(=O)NCc1ccc(C)c(C)c1
inactive: [10] 98 % of control | [11] 93 % of control | [1] 93 % of control | [2] 94 % of control | [5] 98 % of control

O=C(CN1CCOCC1)Nc1ccc(-c2ccc(NC(=O)CN3CCOCC3)cc2)cc1
inactive: dose: 100.0 mg/kg/injection, schedule: Q01DX001 (ip), vehicle: carboxymethylcellulose (CMC) 92 % of control | dose: 200.0 mg/kg/injection, schedule: Q01DX001 (ip), vehicle: carboxymethylcellulose (CMC) 97 % of control | dose: 400.0 mg/kg/injection, schedule: Q01DX001 (ip), vehicle: carboxymethylcellulose (CMC) 92 % of control

CC(O)C[As](=O)(O)c1cccc(Cl)c1 (stereo not drawn)
inactive: dose: 12.5 mg/kg/injection, schedule: Q01DX001 (ip), vehicle: Klucel (hydroxypropylcellulose) (HPC) 108 % of control

Ic1ccc(NC2=NCCN2)c2ccccc12
inactive: dose: 25.0 mg/kg/injection, schedule: Q04DX003 (ip), vehicle: Klucel (hydroxypropylcellulose) (HPC) 111 % of control | dose: 50.0 mg/kg/injection, schedule: Q04DX003 (ip), vehicle: Klucel (hydroxypropylcellulose) (HPC) 100 % of control | [3] 93 % of control and 91 % of control

CN1CC(CO)=CC2c3cccc4[nH]cc(c34)CC21 (stereo not drawn)
inactive: [12] 94 % of control

O=c1[nH]c2ccccc2n1C1OC(CO)C(O)C1O (stereo not drawn)
inactive: [12] 98 % of control | [13] 93 % of control | [14] 100 % of control

O=[N+]([O-])c1ccc(Cl)c(OCCCOc2ccc(S(=O)(=O)F)cc2)c1
inactive: [7] 96 % of control | [8] 87 % of control | [9] 90 % of control

Cc1ccc(S(=O)(=O)NNC(=O)c2cc(C)c(C)cc2N)cc1
inactive: [12] 97 % of control | [13] 101 % of control | [14] 95 % of control

CN(C)CCCOS(C)(=O)=O
inactive: dose: 100.0 mg/kg/injection, schedule: Q04DX002 (ip), vehicle: saline with Tween-80 105 % of control | dose: 200.0 mg/kg/injection, schedule: Q04DX002 (ip), vehicle: saline with Tween-80 99 % of control

O=C(CC1(O)C(=O)Nc2ccccc21)CC1(O)C(=O)Nc2ccccc21 (stereo not drawn)
inactive: dose: 100.0 mg/kg/injection, schedule: Q01DX007 (ip), vehicle: Klucel (hydroxypropylcellulose) (HPC) 110 % of control | [3] 100 % of control | dose: 200.0 mg/kg/injection, schedule: Q01DX007 (ip), vehicle: Klucel (hydroxypropylcellulose) (HPC) 118 % of control | [4] 97 % of control | dose: 400.0 mg/kg/injection, schedule: Q01DX007 (ip), vehicle: Klucel (hydroxypropylcellulose) (HPC) 103 % of control | [6] 92 % of control

O=C(COc1ccccc1)NCCO
inactive: [1] 110 % of control | [3] 100 % of control | [2] 103 % of control | [4] 97 % of control | [5] 111 % of control | [6] 102 % of control

Cn1cc(NC(=O)c2cc(NC(=O)c3cc(NC=O)cn3C)cn2C)cc1C(=O)NCCC(=N)N
inactive: dose: 12.5 mg/kg/injection, schedule: Q01DX009 (ip), vehicle: Klucel (hydroxypropylcellulose) (HPC) 95 % of control | [10] 98 % of control | dose: 25.0 mg/kg/injection, schedule: Q01DX Z (ip), vehicle: water 100 % of control | [11] 92 % of control | dose: 50.0 mg/kg/injection, schedule: Q01DX Z (ip), vehicle: water 104 % of control | dose: 75.0 mg/kg/injection, schedule: Q01DX Z (ip), vehicle: water 104 % of control | dose: 100.0 mg/kg/injection, schedule: Q01DX Z (ip), vehicle: water 100 % of control
